Results from article PMC7772087 (Biosensors & Bioelectronics, 2020).

Target: T1, NF-κB p50 (Homo sapiens, UniProt P19838)
T1 sequence (P19838 1-968): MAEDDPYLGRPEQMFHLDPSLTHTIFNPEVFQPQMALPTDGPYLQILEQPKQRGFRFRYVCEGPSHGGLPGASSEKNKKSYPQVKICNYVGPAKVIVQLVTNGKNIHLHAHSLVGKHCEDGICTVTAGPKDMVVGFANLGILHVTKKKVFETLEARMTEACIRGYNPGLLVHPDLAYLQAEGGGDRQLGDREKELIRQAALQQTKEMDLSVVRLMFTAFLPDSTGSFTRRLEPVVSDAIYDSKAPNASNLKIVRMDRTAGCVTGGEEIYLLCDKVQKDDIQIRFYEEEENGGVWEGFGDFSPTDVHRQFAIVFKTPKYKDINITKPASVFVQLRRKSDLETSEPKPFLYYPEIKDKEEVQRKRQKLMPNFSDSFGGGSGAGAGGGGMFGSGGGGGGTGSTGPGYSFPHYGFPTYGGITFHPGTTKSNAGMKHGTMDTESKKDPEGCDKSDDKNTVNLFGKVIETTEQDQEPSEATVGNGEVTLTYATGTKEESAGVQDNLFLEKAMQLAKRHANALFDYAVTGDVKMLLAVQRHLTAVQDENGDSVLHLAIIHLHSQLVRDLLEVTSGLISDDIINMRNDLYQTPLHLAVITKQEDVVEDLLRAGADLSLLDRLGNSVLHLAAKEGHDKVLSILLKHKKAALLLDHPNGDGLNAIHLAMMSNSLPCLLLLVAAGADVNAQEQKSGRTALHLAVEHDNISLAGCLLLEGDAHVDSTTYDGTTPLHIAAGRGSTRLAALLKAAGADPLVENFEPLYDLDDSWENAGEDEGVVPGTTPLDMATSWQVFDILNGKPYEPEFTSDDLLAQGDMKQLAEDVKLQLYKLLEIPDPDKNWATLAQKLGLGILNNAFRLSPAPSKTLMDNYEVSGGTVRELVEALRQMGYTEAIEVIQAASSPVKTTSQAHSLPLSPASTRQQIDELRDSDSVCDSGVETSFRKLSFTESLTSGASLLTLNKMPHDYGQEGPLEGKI
Experiment: Electrochemiluminescence biosensor of recombinant p50 binding to dsDNA

O=C(NC1=CC(=O)[C@H]2O[C@H]2[C@H]1O)c1ccccc1O [(−)-DHMEQ]
IC50: 0.83 nM
